{"source": "ChEMBL document CHEMBL1152022", "about": "“Double-headed molecules based on linear or angular psoralen and -methylene--butyrolactone: a search for non-phototoxic potential antiproliferative compounds” (Bioorg Med Chem Lett, 1993)", "assay_type_in_all_cases": "functional, organism-based", "key": {"[1]": {"species": "Mus musculus", "test": "Phototoxicity was evaluated at a concentration of 13.9 mM and a UVA dose of 10 J/cm**2 in mouse ear-swelling test; non-phototoxic"}, "[2]": {"species": "Mus musculus", "test": "Phototoxicity was evaluated at a concentration of 27.7 mM at a UVA dose of 12 J/cm**2 in mouse ear-swelling test; non-phototoxic"}, "[3]": {"species": "Mus musculus", "test": "Phototoxicity was evaluated at a concentration of 1.4 mM and with an irradiation dose of 6 J/cm**2 in mouse ear-swelling test; non-phototoxic"}, "[4]": {"species": "Mus musculus", "test": "Phototoxicity was evaluated at a concentration of 1.4 mM and with an irradiation dose of 6 J/cm**2 in mouse ear-swelling test; induced marked erythema."}}, "note": "Calls of active or inactive are those of the source. The rule behind the calls is not given here."}
{"smiles": "C=C1CC(CCCCCCCCCCc2cc3c(ccc4ccc(=O)oc43)o2)OC1=O", "note": "(centres undefined)", "values": [{"measurement": "Phototoxicity", "setting": "[1]", "result": "Not toxic"}]}
{"smiles": "C=C1CC(CCCCCCCCCCOc2c3ccoc3cc3oc(=O)ccc23)OC1=O", "note": "(centres undefined)", "values": [{"measurement": "Phototoxicity", "setting": "[2]", "result": "Not toxic"}, {"measurement": "Phototoxicity", "setting": "[3]", "result": "Not toxic"}]}
{"smiles": "COc1c2ccoc2cc2oc(=O)ccc12", "values": [{"measurement": "Phototoxicity", "setting": "[4]", "result": "Active"}]}
